Our source for the Ki values is paper PMC12095705, “Diversity and enzymatic activity of Polish beehive products microbiota, and characterization of a novel β-galactosidase from Paenibacillus sp. 8” (Scientific Reports, 2025).

The target in the assay is T1, BgaP β-galactosidase.
T1 construct: recombinant full-length, 675 amino acids (GenBank XED97098)
Kind of assay: inhibition of ONPG hydrolysis by purified enzyme, […] °C, pH […]; Lineweaver-Burk. The assay is classed as biochemical, Paenibacillus sp. 8.

The compound `OC[C@H]1OC(O)[C@H](O)[C@@H](O)[C@H]1O` (some centres unmarked) [galactose] came in with a Ki of 6.99 mM.
Turning to `OC[C@H]1OC(O)[C@H](O)[C@@H](O)[C@@H]1O` (some centres unmarked) [glucose], affinity was put at a Ki of 27.3 mM.

Usually Ki stands for the equilibrium dissociation constant of an inhibitor or competing ligand from its target. Read a high Ki as lower affinity.
